Experimental data reported in US11529302B2, “Composition, artificial nail composition, nail decoration material, artificial nail, stored container, image forming apparatus, and image forming method” (RICOH COMPANY, LTD., priority 2018, dated 2022).

Test: Solubility of polymerization initiator in the acrylamide compound having an ester structure
Format: physicochemical

Compound: Cc1cc(C)c(C(=O)P(=O)(C(=O)c2c(C)cc(C)cc2C)c2ccccc2)c(C)c1 [B2-1, Bis(2,4,6-trimethylbenzoyl) phenyl phosphine oxide]
- solubility in the acrylamide compound having an ester structure: poor solubility
